# Test results from patent publication US20240418701A1, “SINGLE MOLECULE IDEN[…] A REACTIVE HETERO-NANOPORE” (priority 2021, published 2024).
# Key:
# [1] = molecular target: T1, MspA-PBA (boronic acid appended hetero-octameric MspA) (Mycolicibacterium smegmatis, UniProt A0QR29, D117C/D118N/D120N/D145R/D161R/E166K); test: Single channel recording of alditol binding to MspA-PBA nanopore (standards and zero-sugar drinks); parameters: species or system Mycobacterium smegmatis; conditions: N=3; for ratio (mean current percentage blockage) / std (standard deviation of the blocking level): alditol 4 mM (glycerol 8 mM) in cis
# T1 construct: H6 (hexa-histidine) (C); 3-(maleimide) phenylboronic acid (MPBA) adduct on the thiol of Cys90; made in house; host or cells: E. coli BL21 (DE3) pLysS, co-expression from pETDuet-1
# Protocol: FIG. 88: Definition of event parameters. (a) A representative electrophysiology trace containing nanopore events. Xylitol was treated as the model analyte. I0 is the open pore current and Ib is the residual current caused by alditol blockade. ratio is derived from (I0−Ib)/I0, which is defined as the percentage blockage. τoff represents the dwell time of an event. τon represents the inter-event interval. std is the standard deviation value of the blockage level. (b-c) The histogram plot of ratio (b) and std (c) acquired from a continually recorded trace. The histograms were Gaussian fitted and the peaks of the fitting results respectively represent the mean value of ratio and the mean std. (d-e) The histogram plots of τoff (d) and τon (e) acquired from a continually recorded trace. The histogram plots were respectively fit to a single exponential curve, according to the equation y=a*exp (−x/τ), from which the mean event dwell time (τoff) (d) and the mean inter-event interval (τon) (e) were respectively derived. If not otherwise stated, all results in this manuscript were described by event parameters defined above.
# All subsequent nanopore measurements were carried out with a 1.5 M KCl buffer (1.5 M KCl, 10 mM 3-(N-Morpholino) propanesulfonic acid (MOPS), pH 7.0) and a +100 m V continually applied potential (Method 1 in Example 3). 13 types of alditols, which were derived from the reduction of the carbonyl group of C3-C6 monoaldoses were treated as model polyols (FIGS. 77b and 83). The PBA of MspA-PBA can complex with a polyol, forming a cyclic ester at the pore constriction and resulting in the corresponding nanopore event being reported. All alditols were added to the cis side of the pore and the final concentration of alditols was set at 4 mM with the exception of glycerol, which was set at 8 mM instead. […] In addition, single molecule sensing of glycerol and D-Sorbitol by MspA-PBA are as shown in FIGS. 104 and 105, respectively.
# To describe the sensing events quantitatively, event parameters such as the open-pore current (I0), the current blockade (Ib), the percentage blockage (ratio), the event dwell time (τoff), the inter-event intervals (τon) and the standard deviation value of the blockage level (std) were defined as described in FIG. 88. The percentage blockage, also referred to for simplicity as ratio, is defined as (I0−Ib)/I0.
# Quantitatively, the reciprocal of the mean inter-event interval (1/τon, N=3) is linearly correlated with the alditol concentration, consistent with a bimolecular model. The mean event dwell time τoff (N=3) however is independent of the alditol concentration, and this is consistent with a unimolecular dissociation mechanism (FIGS. 89e-92e, Table 18). […] The binding constant for borate cyclic ester formation for alditols increases as the number of hydroxyl groups in the alditol increases (FIG. 77c and Table 18), consistent with conclusions drawn previously from the corresponding NMR measurements.^52 Nanopore measurements were also performed with different applied voltages. […] This is expected because all alditols tested in this paper are electrically neutral and the formation of a borate ester is independent of the local electric field.
# All nanopore measurements were performed as described previously.^1,2 Briefly, the measurement device has two custom chambers separated by a thick Teflon film containing a drilled (˜100 μm) aperture. Before the measurement, the aperture was first treated with 0.5% (v/v) hexadecane in pentane and set for pentane evaporation. Electrolyte buffer (500 μL) was added to the electrically grounded chamber (cis chamber) and the opposing chamber (trans chamber). All nanopore measurements in this paper were performed with a 1.5 M KCl buffer (1.5 M KCl, 10 mM MOPS, pH 7.0). Two custom-made Ag/AgCl electrodes were placed in both chambers in contact with the buffers and the patch-clamp amplifier to form a closed circuit. […]
# [2] = molecular target: T2, MspA-PBA (phenylboronic acid modified hetero-octameric (N90C)1(M2)7 MspA) (Mycolicibacterium smegmatis, UniProt A0QR29, D117C/D118N/D120N/D145R/D161R/E166K); assay type: binding, Mycobacterium smegmatis; conditions: +200 mV
# T2 construct: H6 (hexa-histidine) (C); 3-(maleimide) phenylboronic acid (MPBA) adduct on the thiol of Cys90; made in house; host or cells: E. coli BL21 (DE3) pLysS, co-expression from pETDuet-1
# Protocol: FIG. 46: Definition of event parameters. […] The measurement was carried out as described in Methods in Example 2. The chambers were filled with a 1.5 M KCl buffer (1.5 M KCl, 10 mM MOPS, pH 7.0). A transmembrane potential of +200 mV was continually applied. AMP was added to cis with a final concentration of 300 μM. The open pore current (Ip), the residual current (Ib), the dwell time (τoff) and the inter-event duration (τon) are defined as marked on the trace. The percentage blockage (% Ib) is defined as (Ip−Ib)/Ip. The noise amplitude (S.D.) is defined as the standard deviation of the blockage level.
# NMPs consist of a ribose, a phosphate group and a nucleobase, serving as monomeric units of RNA. […] Experimentally, single channel recording was performed using MspA-PBA in a 1.5 M KCl buffer (1.5 M KCl, 10 mM MOPS, pH 7.0) (Methods in Example 2). A transmembrane potential of +200 mV was continually applied. Four canonical NMPs, adenine mononucleotide (AMP), guanine mononucleotide (GMP), cytosine mononucleotide (CMP) and uracil mononucleotide (UMP) were tested as analytes (FIG. 33d). Either type of NMP was added to cis at a final concentration of 300 μM. Subsequently, successive resistive pulses caused by either type of NMP were immediately observed (FIG. 33d). However, no events were observed when M2 MspA was tested, confirming that the PBA located at the pore constriction is critical in the generation of NMP sensing events (FIG. 44). At this condition, ˜1800 events/h were obtained from each pore. The pore could normally withstand a few hours of continuous measurement. Deoxyribonucleoside monophosphate (dNMP) fails to report any event when sensed by MspA-PBA (FIG. 45). This is expected because dNMPs have no cis-diol structure and can't form the boronate ester which is necessary for sensing. The molecular mechanism of sensing which results from reversible covalent bond formation between an NMP and the PBA at the pore constriction is thus confirmed.
# To describe NMP sensing events quantitatively, the event dwell time (τoff), the inter-event interval (τon), the percentage blockage (% Ib=(Ip−Ib)/Ip) and the noise amplitude (S.D.) were derived as described in FIG. 46. Generally, the histograms of τoff and τon show an exponential distribution, and could be fitted to derive the mean time constants τoff or τon, respectively. The histograms of % Ib and S.D. show a Gaussian distribution, which could be fitted to derive the mean percentage blockage % Ib and S.D., respectively. During NMP sensing, by varying the NMP concentrations in cis, the reciprocal of dwell time (1/τoff) remains constant, consistent with a unimolecular dissociation mechanism. Whereas the reciprocal of the inter-event interval (1/τon) linearly correlates with the NMP concentration in cis (Tables 8-11, FIG. 47-50), consistent with a bimolecular model. The dependence of the applied voltage during NMP sensing was investigated using AMP as a representative analyte. […] This is expected because in a pH 7.0 buffer, the phosphate group of NMP is negatively charged and the electrophoretic force applied on the NMP analyte can strongly regulate the rate of event appearance and the event dwell time.
# Octameric M2 MspA = molecular target: T3, Octameric M2 MspA (Mycolicibacterium smegmatis, UniProt A0QR29, D117N/D118N/D120N/D145R/D161R/E166K); test: Alditol sensing using M2 MspA nanopore (control without PBA); assay type: binding, Mycobacterium smegmatis; conditions: alditol 4 mM in cis, +100 mV
# T3 construct: made in house; host or cells: E. coli BL21 (DE3)
# Protocol: FIG. 87: Alditol sensing using M2 MspA nanopore. Glycerol, erythritol, xylitol and sorbitol were used as the representative alditols with different number of hydroxyl groups. All measurements were carried out as described in Methods 1 in Example 3. Octameric M2 MspA was applied as the nanopore sensor. A transmembrane potential of +100 m V was continually applied. Each alditol was added to cis with a final concentration of 4 mM.
# The octameric M2 MspA was used as a control in FIG. 87. It was expressed with E. coli BL21 (DE3) and purified by nickel affinity chromatography as reported previously.^1
# [3] = voltage series: +60 mV, glycerol 12 mM, other alditols 8 mM
# [4] = voltage series: +80 mV, glycerol 12 mM, other alditols 8 mM
# [5] = voltage series: +100 mV, glycerol 12 mM, other alditols 8 mM
# [6] = voltage series: +120 mV, glycerol 12 mM, other alditols 8 mM
# T1 sequence (A0QR29 other isoform, or with tags, fused parts or gaps D117N/D118N/D120N/D145R/D161R/E166K): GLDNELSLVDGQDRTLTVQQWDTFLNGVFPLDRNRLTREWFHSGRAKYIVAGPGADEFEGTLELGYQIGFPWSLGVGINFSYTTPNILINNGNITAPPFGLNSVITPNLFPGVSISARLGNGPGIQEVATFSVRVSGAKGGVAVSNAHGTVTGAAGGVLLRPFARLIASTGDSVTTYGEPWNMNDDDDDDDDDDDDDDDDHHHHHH
# T1 sequence (A0QR29 other isoform, or with tags, fused parts or gaps D117C/D118N/D120N/D145R/D161R/E166K): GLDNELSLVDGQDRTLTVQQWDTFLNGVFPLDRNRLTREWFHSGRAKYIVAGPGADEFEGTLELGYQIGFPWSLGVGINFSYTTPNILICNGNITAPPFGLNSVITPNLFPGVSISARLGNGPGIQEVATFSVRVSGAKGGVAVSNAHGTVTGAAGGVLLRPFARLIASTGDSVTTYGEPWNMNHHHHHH
# T3 sequence (A0QR29 28-211 D117N/D118N/D120N/D145R/D161R/E166K): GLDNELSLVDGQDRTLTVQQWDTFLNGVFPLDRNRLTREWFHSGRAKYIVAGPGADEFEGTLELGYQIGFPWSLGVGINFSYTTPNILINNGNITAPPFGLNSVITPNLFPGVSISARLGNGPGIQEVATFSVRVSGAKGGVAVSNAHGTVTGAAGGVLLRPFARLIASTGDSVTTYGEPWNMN
smiles,measurement,setting,value
OC[C@@H](O)[C@H](O)[C@@H](O)[C@H](O)CO [iditol],ratio (mean current percentage blockage),[1]; +100 mV,29.3 ± 0.2%
same,std (standard deviation of the blocking level),[1]; +100 mV,6.64 ± 0.03 pA
"Nc1ncnc2c1ncn2[C@H]1C[C@H](O)[C@@H](COP(=O)(O)O)O1 [dAMP, 2′-deoxyadenosine-5′-phosphate]",sensing events with MspA-PBA,[2]; analyte 1 mM in cis,no dAMP sensing events were observed
OC[C@@H](O)[C@H](O)[C@H](O)[C@H](O)CO [talitol],ratio (mean current percentage blockage),[1]; +100 mV,27.3 ± 0.2%
same,std (standard deviation of the blocking level),[1]; +100 mV,6.33 ± 0.06 pA
OC[C@@H](O)[C@H](O)[C@@H](O)[C@@H](O)CO [L-sorbitol],ratio (mean current percentage blockage),[1]; +100 mV,30.77 ± 0.06%
same,std (standard deviation of the blocking level),[1]; +100 mV,5.97 ± 0.04 pA
OC[C@@H](O)[C@H](O)[C@@H](O)CO [xylitol],binding events with M2 MspA,Octameric M2 MspA,No binding events were observed
same,ratio (mean current percentage blockage),[1]; +100 mV,25.70±0.10%
same,std (standard deviation of the blocking level),[1]; +100 mV,6.28±0.07 pA
same,1/τon,"[1]; alditol 2 mM in cis, +100 mV",0.42 ± 0.02 s⁻¹
same,τoff,"[1]; alditol 2 mM in cis, +100 mV",515.3 ± 43.5 ms
same,1/τon,"[1]; alditol 4 mM in cis, +100 mV",0.84 ± 0.04 s⁻¹
same,τoff,"[1]; alditol 4 mM in cis, +100 mV",496.3 ± 18.6 ms
same,1/τon,"[1]; alditol 6 mM in cis, +100 mV",1.3 ± 0.1 s⁻¹
same,τoff,"[1]; alditol 6 mM in cis, +100 mV",461.1 ± 13.4 ms
same,1/τon,"[1]; alditol 8 mM in cis, +100 mV",1.71 ± 0.03 s⁻¹
same,τoff,"[1]; alditol 8 mM in cis, +100 mV",474.6 ± 21.2 ms
same,1/τon,[1]; [3],1.66 ± 0.02 s⁻¹
same,1/τon,[1]; [4],1.69 ± 0.02 s⁻¹
same,1/τon,[1]; [5],1.70 ± 0.03 s⁻¹
same,1/τon,[1]; [6],1.68 ± 0.04 s⁻¹
OC[C@@H](O)[C@@H](O)[C@@H](O)[C@@H](O)CO [allitol],ratio (mean current percentage blockage),[1]; +100 mV,27.57 ± 0.06%
same,std (standard deviation of the blocking level),[1]; +100 mV,4.64 ± 0.03 pA
OC[C@@H](O)[C@@H](O)[C@H](O)[C@@H](O)CO [D-sorbitol],binding events with M2 MspA,Octameric M2 MspA,No binding events were observed
same,ratio (mean current percentage blockage),[1]; +100 mV,30.43 ± 0.06%
same,std (standard deviation of the blocking level),[1]; +100 mV,5.30 ± 0.17 pA
same,1/τon,"[1]; alditol 2 mM in cis, +100 mV",0.40 ± 0.04 s⁻¹
same,τoff,"[1]; alditol 2 mM in cis, +100 mV",2100 ± 300 ms
same,1/τon,"[1]; alditol 4 mM in cis, +100 mV",0.81 ± 0.09 s⁻¹
same,τoff,"[1]; alditol 4 mM in cis, +100 mV",2110 ± 120 ms
same,1/τon,"[1]; alditol 6 mM in cis, +100 mV",1.2 ± 0.2 s⁻¹
same,τoff,"[1]; alditol 6 mM in cis, +100 mV",2200 ± 200 ms
same,1/τon,"[1]; alditol 8 mM in cis, +100 mV",1.7 ± 0.1 s⁻¹
same,τoff,"[1]; alditol 8 mM in cis, +100 mV",2200 ± 300 ms
same,1/τon,[1]; [3],1.67 ± 0.03 s⁻¹
same,1/τon,[1]; [4],1.60 ± 0.06 s⁻¹
same,1/τon,[1]; [5],1.70 ± 0.06 s⁻¹
same,1/τon,[1]; [6],1.70 ± 0.05 s⁻¹
"O=c1[nH]cc([C@@H]2O[C@H](COP(=O)(O)O)[C@@H](O)[C@H]2O)c(=O)[nH]1 [Ψ, Pseudouridine-5′-monophosphate]",% Ib (percentage blockage),"[2]; NMP 300 μM in cis, N=3",10.2 ± 0.2%
same,S.D. (noise amplitude of blockage level),"[2]; NMP 300 μM in cis, N=3",2.40 ± 0.05 pA
same,τoff (mean dwell time),"[2]; NMP 300 μM in cis, N=3",36.9 ± 3.4 ms
same,τon (mean inter-event interval),"[2]; NMP 300 μM in cis, N=3",2047.7 ± 283.8 ms
same,Calibration coefficient δ (NMP binding events per unit concentration per min),"[2]; sole NMP 300 μM in cis, three independent measurements",0.099 ± 0.014 µM⁻¹ min⁻¹
OC[C@@H](O)[C@H](O)[C@H](O)[C@@H](O)CO [dulcitol],ratio (mean current percentage blockage),[1]; +100 mV,28.9 ± 0.3%
same,std (standard deviation of the blocking level),[1]; +100 mV,5.22 ± 0.06 pA
OC[C@@H](O)[C@@H](O)[C@H](O)[C@H](O)CO [mannitol],ratio (mean current percentage blockage),[1]; +100 mV,29.2 ± 0.3%
same,std (standard deviation of the blocking level),[1]; +100 mV,3.09 ± 0.17 pA
OC[C@@H](O)[C@H](O)CO [threitol],ratio (mean current percentage blockage),[1]; +100 mV,20.3 ± 0.2%
same,std (standard deviation of the blocking level),[1]; +100 mV,5.84 ± 0.18 pA
OC[C@@H](O)[C@@H](O)[C@@H](O)CO [adonitol],ratio (mean current percentage blockage),[1]; +100 mV,24.13 ± 0.15%
same,std (standard deviation of the blocking level),[1]; +100 mV,3.83 ± 0.07 pA
OC[C@@H](O)C(O)[C@H](O)CO [arabitol],ratio (mean current percentage blockage),[1]; +100 mV,25.13 ± 0.15%
same,std (standard deviation of the blocking level),[1]; +100 mV,4.71 ± 0.03 pA
